In the NIST ThermoML archive (doi:10.1016/j.jct.2012.12.019):
± gives the expanded uncertainty stated by the source.

Details: Liquid, Closed cell (Static) method

vapor or sublimation pressure (383.2 K): 160.4 ± 3.5 kPa | vapor or sublimation pressure (393.2 K): 223.3 ± 4.7 kPa | vapor or sublimation pressure (403.2 K): 303.1 ± 6.3 kPa | vapor or sublimation pressure (413.2 K): 406.6 ± 8.5 kPa | vapor or sublimation pressure (423.2 K): 546.1 ± 11 kPa
Compound: CCCO [propan-1-ol]
